Measurements taken from ChEMBL document CHEMBL1201862, “PubChem BioAssay data set” (2004).
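Growth conditions: 96-well plates. Treatment: test compound, 48 hours, 5 concentrations. Analysis: linear interpolation between bracketing concentrations; unreached endpoints set to highest concentration. The concentration for 50% growth inhibition is given as GI50.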 Calls of active or inactive are those of the source. Cut-off read from the data, not from the text of the source: active = GI50 up to about 1.1 µM and inactive = higher.

How the values were obtained:
Assay in all cases: NCI tumour cell line growth inhibition, 48 h
[1] = system: OVCAR-8
[2] = system: RXF 393
[3] = system: U-251
[4] = system: HCT-15
[5] = system: CCRF-CEM
[6] = system: HOP-62
[7] = system: SF-268
[8] = system: HCT-116
[9] = system: MOLT-4
[10] = system: OVCAR-3
[11] = system: LXFL 529
[12] = system: SN12C
[13] = system: A498
[14] = system: UACC-62
[15] = system: ACHN
[16] = system: 786-0
[17] = system: NCI-H226
[18] = system: HL-60
[19] = system: SK-MEL-28
[20] = system: SF-295

SMILES | GI50 [1] | GI50 [2] | GI50 [3] | GI50 [4] [µM] | GI50 [5] | GI50 [6] | GI50 [7] | GI50 [8] | GI50 [9] | GI50 [10] | GI50 [11] | GI50 [12] | GI50 [13] | GI50 [14] | GI50 [15] | GI50 [16] | GI50 [17] | GI50 [18] | GI50 [19] | GI50 [20]
CCN(CC)CC[n+]1ccc2c(C)c3[nH]c4ccc(O)cc4c3c(C)c2c1 | 3.72 µM (inactive) | 11.1 µM (inactive) | 1.33 µM (inactive) | 18.7 | 1.43 µM (inactive) | 2.03 µM (inactive) | 1.12 µM (active) | 6.47 µM (inactive) | 0.0473 µM (active) | 14.9 µM (inactive) | 2.5 µM (inactive) | 0.414 µM (active) | 16.2 µM (inactive) | 6.56 µM (inactive) | 2.64 µM (inactive) | 3.05 µM (inactive) | 1.05 µM (active) | 2.88 µM (inactive) | 7.13 µM (inactive) | 3.01 µM (inactive)
COc1ccc2c(c1)Oc1cc(O)ccc1[C@H]2c1ccccc1C(=O)NC(C)c1ccccc1 (some centres undefined) | 16 µM (inactive) | 18.7 µM (inactive) | 14.4 µM (inactive) | 14.6 | 16 µM (inactive) | 18.8 µM (inactive) | 19 µM (inactive) | 13.6 µM (inactive) | 9.73 µM (inactive) | 12.3 µM (inactive) | 15.3 µM (inactive) | 16.3 µM (inactive) | 16.9 µM (inactive) | 12.1 µM (inactive) | 13.2 µM (inactive) | 17.9 µM (inactive) | 20.7 µM (inactive) | 14.4 µM (inactive) | 17.7 µM (inactive) | 12.4 µM (inactive)
CCCCNCC(=O)O[C@]1(CC)C(=O)OCc2c1cc1n(c2=O)Cc2cc3ccccc3nc2-1 | 0.217 µM (active) | 0.385 µM (active) | 0.0508 µM (active) | 2.15 | 0.0127 µM (active) | < 0.0277 µM (active) | 0.0851 µM (active) | 0.407 µM (active) | 0.017 µM (active) | 2.16 µM (inactive) | 3.21 µM (inactive) | 0.0622 µM (active) | 0.741 µM (active) | 0.0578 µM (active) | 0.037 µM (active) | 0.0482 µM (active) | 0.105 µM (active) | 0.084 µM (active) | 2.17 µM (inactive) | 0.0705 µM (active)
COC(=O)C1=NC(=S)NC(c2ccccc2)C1c1nc2ccccc2s1 (centres undefined) | > 100 µM (inactive) | > 100 µM (inactive) | > 100 µM (inactive) | > 100 | > 100 µM (inactive) | > 100 µM (inactive) | > 100 µM (inactive) | > 100 µM (inactive) | > 100 µM (inactive) | > 100 µM (inactive) | > 100 µM (inactive) | > 100 µM (inactive) | > 100 µM (inactive) | > 100 µM (inactive) | > 100 µM (inactive) | > 100 µM (inactive) | > 100 µM (inactive) | 98.2 µM (inactive) | > 100 µM (inactive) | > 100 µM (inactive)
O=C1NC(Cc2ccc(O)cc2)C(=O)N2CCCC12 (centres undefined) | > 100 µM (inactive) | > 100 µM (inactive) | > 100 µM (inactive) | > 100 | > 100 µM (inactive) | > 100 µM (inactive) | > 100 µM (inactive) | > 100 µM (inactive) | > 100 µM (inactive) | > 100 µM (inactive) | > 100 µM (inactive) | > 100 µM (inactive) | > 100 µM (inactive) | > 100 µM (inactive) | > 100 µM (inactive) | > 100 µM (inactive) | > 100 µM (inactive) | > 100 µM (inactive) | > 100 µM (inactive) | > 100 µM (inactive)
C[C@H]1CC[P+](Cc2ccccc2)(c2ccccc2)C1 (some centres undefined) | > 100 µM (inactive) | > 100 µM (inactive) | 36.7 µM (inactive) | > 100 | > 100 µM (inactive) | > 100 µM (inactive) | – | > 100 µM (inactive) | > 100 µM (inactive) | 41.2 µM (inactive) | 26.4 µM (inactive) | > 100 µM (inactive) | > 100 µM (inactive) | 76.6 µM (inactive) | > 100 µM (inactive) | > 100 µM (inactive) | > 100 µM (inactive) | 33.9 µM (inactive) | 84.7 µM (inactive) | > 100 µM (inactive)
